Results: article PMC12735872, “Development of ^18F/^11C-Labeled Pyrrolo-Pyridine/Pyrimidine LRRK2 Selective PET Radioligands” (Pharmaceuticals, 2025)
Like-named read-outs stand apart in the source and are kept apart here.

Tests used:
[1] = Plasma protein binding by ultrafiltration; type: in vitro ADME, non-human primate (NHP); conditions: cynomolgus monkey, pH 7.4, NHP plasma, baseline
Protocol: The plasma protein binding of all three radioligands was determined in duplicate at the baseline condition according to a previously published method. For each blood plasma sample, 500 μL of non-human primate (NHP) blood plasma was used with 50 μL PBS (pH 7.4 containing KCl 0.2 mg, KH2PO4 0.2 mg, Na2HPO4 1.42 mg, and NaCl 8 mg per mL). The mixture included around 20 MBq of the corresponding radioligand in PBS. Samples underwent incubation at room temperature for 10 min. A small aliquot (20 µL) was taken from each mixture, and radioactivity measurements were performed using a well counter. From each mixture, 200 µL was placed into ultrafiltration tubes (Millipore Centrifree YM-30) and centrifuged at 3000 rpm for 15 minutes. The remaining filtrates were analyzed and aliquots (20 µL) were counted in the well counter described earlier. Protein-bound fractions were calculated as follows:(1) C⥂pla (filtrate) /Cpla (total) ÷CPBS (filtrate) /CPBS (total) ×100(%)
Cpla (total) represents the radioactivity concentration of incubation mixture in plasma and CPBS (total) represents the radioactivity concentration of incubation mixture in PBS. Cpla (filtrate) and CPBS (filtrate) are the radioactivity concentrations from filtrate samples.

LRRK2 [2] = molecular target: T1, LRRK2 (Homo sapiens, UniProt Q5S007); assay: In vitro autoradiography, human whole-hemisphere brain slices; type: binding; conditions: human brain slices, baseline
T1 construct: Human brains without pathological findings were acquired from the National Institute of Forensic Medicine; from tissue; host or cells: human post-mortem control brain, whole-hemisphere sections (100 µm)
Protocol: Human brains without pathological findings were acquired from the National Institute of Forensic Medicine at Karolinska Institutet in Stockholm, Sweden. These brains were obtained during forensic autopsies (designated as control brain) and were processed in a manner like previously described methods. […] The brain was removed, and its tissues were kept in −85 °C until the sectioning process. The whole brain hemispheric slices were subsequently maintained at −25 °C until the commencement of autoradiography procedures. […] The sectioning of the brain and the autoradiography experiments were performed at the Psychiatry section, Department of Neuroscience, Karolinska Institutet, Sweden.
(§1) Whole brain hemispheres were sectioned into horizontal slices with a thickness of 100 µm using a Leica cryomacrocut system. The autoradiographic procedures followed the same protocols established in previous studies conducted in our laboratory. The whole-hemisphere sections of 100 micron thickness were incubated for 90 min at room temperature with their corresponding radiotracer (4 MBq/200 mL) in TRIS buffer (pH 7.4) containing sodium chloride (120 mM), potassium chloride (5 mM), calcium chloride (2 mM), and albumin (0.1% w/v). After incubation, sections were washed three times in the same buffer at room temperature for five minutes each, briefly dipped in ice-cold distilled water, dried, and then placed in the phosphor imaging plates. Binding density standards were prepared by serial dilution of the radioligand stock solution in the assay buffer. Readings were taken with the Fujifilm BAS-5000 (Fujifilm, Tokyo, Japan), while quantitative analysis was conducted with the Multi Gauge 3.2 image analysis software (Fujifilm, Tokyo, Japan). For blocking experiments, adjacent brain sections were co-incubated with LuAF66583 (0.1 µM or 10 µM).

LRRK2 [3] = assay: In vitro autoradiography, NHP brain slices; type: binding; conditions: baseline
Protocol: as §1, with “µM). […] The thickness differed from human tissue (20 µm).” for “µM).”

[4] = Stability of formulated radioligand in PBS (analytical HPLC); type: physicochemical; conditions: pH 7.4, for 120 min
Protocol: The radiochemical purity and stability of all three radioligands ([^11C]3, [^18F]1 and [^18F]2) were determined using analytical HPLC coupled with an XBridge analytical column (C18 5 µm, 4.6 × 150 mm particle size), a Merck-Hitachi L-7100 pump, an L-7400 UV detector, and a GM tube for radioactivity detection (VWR International). A mixture of acetonitrile (25%) and HCO2NH4 (0.1 M aq. solution) (75%) with a flow rate of 2 mL/min was used as HPLC isocratic mobile phase. The HPLC liquid flow was monitored using a UV absorbance detector (λ = 254 nm) in conjunction with a radioactive detector (BETA-flow, Beckman, Fullerton, CA, USA). All three radioligands were eluted with a retention time (tR) of 4.0–4.5 min, and the total run time of the HPLC program was 9 min. The identity of the radiolabeled compound was confirmed by co-injecting the corresponding authentic reference standard.

[5] = read-out: Free fraction in plasma (fP)
[6] = read-out: Plasma protein binding (converted)

T1 sequence (Q5S007 whole entry): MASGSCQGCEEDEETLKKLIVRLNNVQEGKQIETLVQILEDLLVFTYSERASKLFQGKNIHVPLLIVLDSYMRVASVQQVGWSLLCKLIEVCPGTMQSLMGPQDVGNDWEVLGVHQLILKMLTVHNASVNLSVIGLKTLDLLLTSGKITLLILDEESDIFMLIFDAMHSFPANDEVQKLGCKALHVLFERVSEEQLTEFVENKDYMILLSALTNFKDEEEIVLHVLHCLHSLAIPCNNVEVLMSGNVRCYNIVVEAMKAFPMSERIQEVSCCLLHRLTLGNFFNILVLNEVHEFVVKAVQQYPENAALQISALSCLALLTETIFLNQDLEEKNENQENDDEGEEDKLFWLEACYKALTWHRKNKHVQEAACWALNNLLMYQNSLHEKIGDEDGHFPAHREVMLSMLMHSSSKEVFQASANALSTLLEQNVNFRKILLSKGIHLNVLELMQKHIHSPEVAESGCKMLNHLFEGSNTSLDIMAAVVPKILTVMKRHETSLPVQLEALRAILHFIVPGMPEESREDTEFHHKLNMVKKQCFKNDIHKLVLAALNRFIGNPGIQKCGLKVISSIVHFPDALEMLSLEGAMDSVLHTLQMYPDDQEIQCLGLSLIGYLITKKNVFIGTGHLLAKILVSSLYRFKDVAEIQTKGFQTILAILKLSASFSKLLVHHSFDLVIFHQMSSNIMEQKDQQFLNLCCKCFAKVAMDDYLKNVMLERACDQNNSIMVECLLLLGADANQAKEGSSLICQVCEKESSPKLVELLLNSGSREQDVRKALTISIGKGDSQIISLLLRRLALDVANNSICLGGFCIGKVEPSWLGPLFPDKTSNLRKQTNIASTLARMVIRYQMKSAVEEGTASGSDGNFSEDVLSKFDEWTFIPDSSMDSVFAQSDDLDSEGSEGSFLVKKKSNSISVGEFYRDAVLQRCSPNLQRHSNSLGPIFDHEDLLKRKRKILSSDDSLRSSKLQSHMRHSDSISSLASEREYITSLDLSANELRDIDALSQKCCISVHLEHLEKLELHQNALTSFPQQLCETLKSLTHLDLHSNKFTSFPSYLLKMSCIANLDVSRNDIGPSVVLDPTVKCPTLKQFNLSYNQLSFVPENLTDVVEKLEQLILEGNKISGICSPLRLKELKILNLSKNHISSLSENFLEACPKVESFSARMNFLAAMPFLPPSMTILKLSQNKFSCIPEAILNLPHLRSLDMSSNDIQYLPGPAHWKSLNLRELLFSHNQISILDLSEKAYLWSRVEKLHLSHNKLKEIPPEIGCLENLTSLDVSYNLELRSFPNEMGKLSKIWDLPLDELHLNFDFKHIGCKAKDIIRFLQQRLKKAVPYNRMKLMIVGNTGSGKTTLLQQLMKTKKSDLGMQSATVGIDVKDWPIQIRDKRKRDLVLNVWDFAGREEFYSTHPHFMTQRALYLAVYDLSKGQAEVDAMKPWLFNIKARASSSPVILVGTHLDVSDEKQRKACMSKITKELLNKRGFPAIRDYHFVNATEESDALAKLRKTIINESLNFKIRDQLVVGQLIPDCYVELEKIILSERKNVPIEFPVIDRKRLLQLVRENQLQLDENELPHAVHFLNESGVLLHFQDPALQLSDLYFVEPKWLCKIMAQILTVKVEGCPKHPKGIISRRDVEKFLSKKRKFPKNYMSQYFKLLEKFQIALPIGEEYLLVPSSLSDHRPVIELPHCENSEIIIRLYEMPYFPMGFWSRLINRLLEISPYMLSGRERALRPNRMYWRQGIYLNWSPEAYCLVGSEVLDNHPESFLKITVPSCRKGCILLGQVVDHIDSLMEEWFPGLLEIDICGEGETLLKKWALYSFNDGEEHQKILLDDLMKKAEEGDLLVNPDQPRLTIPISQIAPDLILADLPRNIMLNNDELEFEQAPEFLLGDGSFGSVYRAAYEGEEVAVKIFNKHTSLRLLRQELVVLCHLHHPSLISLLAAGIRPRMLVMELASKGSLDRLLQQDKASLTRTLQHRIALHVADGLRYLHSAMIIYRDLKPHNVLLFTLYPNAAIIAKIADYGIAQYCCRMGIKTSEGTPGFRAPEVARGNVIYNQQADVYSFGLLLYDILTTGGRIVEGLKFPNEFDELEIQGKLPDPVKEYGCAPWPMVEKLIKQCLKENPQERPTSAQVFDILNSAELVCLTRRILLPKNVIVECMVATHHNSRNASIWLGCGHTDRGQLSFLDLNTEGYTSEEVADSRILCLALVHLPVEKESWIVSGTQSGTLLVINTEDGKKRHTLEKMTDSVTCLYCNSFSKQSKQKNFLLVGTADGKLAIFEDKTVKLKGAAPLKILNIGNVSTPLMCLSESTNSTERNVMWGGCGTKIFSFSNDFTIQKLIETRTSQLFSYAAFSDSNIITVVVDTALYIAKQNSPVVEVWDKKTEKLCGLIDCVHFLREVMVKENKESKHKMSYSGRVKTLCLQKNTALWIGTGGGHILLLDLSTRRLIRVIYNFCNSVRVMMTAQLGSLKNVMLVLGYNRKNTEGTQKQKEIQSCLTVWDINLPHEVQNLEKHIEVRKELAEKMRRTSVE

Row | SMILES | fraction unbound at 10 min [1, 5] | fraction unbound at 10 min [1, 6] | Binding of radioligand in brain slices (ARG) (LRRK2 [2]) | Binding of radioligand in brain slices (ARG) (LRRK2 [3]) | Stability in PBS buffer [4]
1 | C[C@@H]1C[C@@H]([18F])CN1c1c(C#N)c2c(N)nccc2n1C [[^18F]1, 4-Amino-2-((2R,4R)-4-[^18F]fluoro-2-methylpyrrolidin-1-yl)-1-methyl-1H-pyrrolo[3,2-c]pyridine-3-carbonitrile] | ~0.45 | ~0.45 | clear binding | clear binding | demonstrated stability
2 | C[C@@H]1C[C@@H]([18F])CN1c1c(C#N)c2c(N)ncnc2n1C [[^18F]2, 4-Amino-6-((2R,4R)-4-[^18F]fluoro-2-methyl Pyrrolidin-1-yl)-7-methyl-7H-pyrrolo[2,3-d]pyrimidine-5-carbonitrile] | ~0.6 | ~0.6 | displayed binding | displayed binding | demonstrated stability
